Measured values published in patent US20130287721A1, “METHOD FOR COUNTERACTING AMMONIA MALODOR” (Firmenich SA, priority 2010, published 2013).

Test system: ammonia lateralization threshold
Assay: Panel evaluation of the lateralization threshold (LT) of ammonia alone and in combination with a PRM
Assay type: in vivo, panellists
Design: LT of ammonia Panellist 1 Cond II / LT of ammonia Panellist 2 Cond II / LT of ammonia Panellist 3 Cond II: unit not given here
Settings: for LT of ammonia Panellist 1 Cond II / LT of ammonia Panellist 2 Cond II / LT of ammonia Panellist 3 Cond II / LT of ammonia Panellist 1 %Δ / LT of ammonia Panellist 2 %Δ / LT of ammonia Panellist 3 %Δ: Table 4; for LT of ammonia Panellist 1 Cond II / LT of ammonia Panellist 2 Cond II / LT of ammonia Panellist 3 Cond II: ammonia stimulus combined with PRM stimulus; for LT of ammonia Panellist 1 %Δ / LT of ammonia Panellist 2 %Δ / LT of ammonia Panellist 3 %Δ / Ammonia LT Panellist 1 % Δ / Ammonia LT Panellist 2 % Δ / Ammonia LT Panellist 3 % Δ: change of ammonia LT, Cond II (with PRM) vs Cond I (ammonia alone); for Ammonia LT Panellist 1 Cond II / Ammonia LT Panellist 2 Cond II / Ammonia LT Panellist 1 % Δ / Ammonia LT Panellist 2 % Δ / Ammonia LT Panellist 3 Cond II / Ammonia LT Panellist 3 % Δ: Table 3; for Ammonia LT Panellist 1 Cond II / Ammonia LT Panellist 2 Cond II / Ammonia LT Panellist 3 Cond II: ammonia stimulus combined with PRM stimulus (concentration of Table 2 in propylene glycol)
Experimental: An ammonia stimulus test range was prepared. To ensure a stable level of ammonia in each stimulus, the ammonia headspace was stabilized by combining appropriate concentrations of NH4Cl, NaOH and H2O instead of simply adding ammonia directly to a solvent. Different concentrations of ammonia were used to create a stimulus test range by utilizing the appropriate amount of each compound (see Table 1).
A stimulus was also prepared for each PRM which was intended to be combined with ammonia stimuli. As the PRMs differed in their potency and to ensure that each PRM stimulus had approximately the same potency, an abbreviated dose response curve was constructed for each PRM by having four panellists evaluate the intensity of five concentration levels of the PRM dissolved in propylene glycol in duplicate. Assessments were made relative to the reference of 170 ppm allyl heptanoate in propylene glycol, which intensity was set to 0. Based upon the average scores, a rough intensity match was made for each PRM utilizing one of the following criteria. If one of the tested concentration levels averaged at or near zero, this concentration level was selected. If the rating created any sort of reasonable curve, the equation of the curve was determined and solved for 0 to arrive at the PRM assessment level. If multiple concentration levels were equally distant form the match level, then the standard deviation across individuals was considered, as were the individual responses. In general, the PRM level was selected to be on average close to 0 with low variability, with two panellists saying the level was a bit too high and the other two panellists saying the level was a bit too low. The PRMs for which a stimulus was prepared are listed in Table 2 below, together with the concentration of the PRM in the stimulus.
Volunteers were screened for their ability to lateralize ammonia stimuli. For the screening, the experimenter measured the participant's lateralization threshold for ammonia using a two-alternative forced choice modified staircase procedure employing a four-in, two-down, one-up rule with a five reversal criterion, as described below, On each trial volunteers were presented with a pair of glass bottles with clean, custom-made nose pieces. One bottle contained ammonia at a particular level selected from Table 1 and the other bottle contained water only. Each bottle was applied to one nostril using the nose piece. The volunteers were asked to identify which bottle in each pair contained ammonia.
If the ammonia stimulus was correctly identified in four consecutive trials, the concentration was decreased by one level of Table 1 on the next trial. If an incorrect answer was provided, the concentration was increased by one level of Table 1. Location (left or right nostril) of the stimulus was randomized over presentations. Testing continued until one of the following occurred: • 1) Five reversals (correct decision followed by an incorrect decision or vice versa) were achieved; • 2) The volunteer gave a correct response twice in a row at the lowest level of Table 1; or • 3) The volunteer gave an incorrect response at the highest level of Table 1.
In the first circumstance, threshold values were then calculated by averaging the last four reversals. In the second circumstance, the LT was the lowest level. In the third circumstance, the LT could not be calculated. Volunteers were considered qualified to participate in the panel evaluation if their LT could be calculated (Circumstance 1).
The LT of ammonia, both alone and in combination with diverse PRM, was determined. A repeated-measures design was used, such that the LT with and without the addition of a PRM were both measured at the same time in one person by utilizing interwoven stimuli presentations. The LT for each PRM was measured by two to three panellists, the third panellists being included if the results of the first to panellists disagreed. […]

Compound | LT of ammonia Panellist 1 Cond II | LT of ammonia Panellist 2 Cond II | LT of ammonia Panellist 3 Cond II | LT of ammonia Panellist 1 %Δ | LT of ammonia Panellist 2 %Δ | LT of ammonia Panellist 3 %Δ | Ammonia LT Panellist 1 Cond II | Ammonia LT Panellist 2 Cond II | Ammonia LT Panellist 1 % Δ | Ammonia LT Panellist 2 % Δ | Ammonia LT Panellist 3 Cond II | Ammonia LT Panellist 3 % Δ
CC(C)CCCC(C)CCO (stereo not shown) [3,7-Dimethyl-1-octanol] | 6.3 | 3.5 | 3.5 | 214% | 77% | 77% |  |  |  |  |  | 
C=C1CCCC(C)(C)C1C(=O)/C=C/C (racemic) [Gamma damascone, (+−)-(E)-1-(2,2-dimethyl-6-methylene-1-cyclohexyl)-2-buten-1-one] | 6.3 | 19.6 | 11.1 | 214% | 885% | 456% |  |  |  |  |  | 
CC(=O)OCCC1CCCCC1 [2-cyclohexylethyl acetate] | 2.0 | 1.1 | 1.1 | 848% | 465% | 842% |  |  |  |  |  | 
CCC/C(C)=C\COC(C)=O [Aladinate ®, (Z)-3-methyl-2-hexenyl acetate] |  |  |  |  |  |  | 19.1 ppm | 71.9 ppm | −16% | 0% |  | 
CC1=C(C=O)C(C)(C)CC=C1 [Safranal] |  |  |  |  |  |  | 22.9 ppm | 2.2E−03 ppm | 20% | 3088% |  | 
C=CC(C)(O)CCC=C(C)C (stereo not shown) [Linalool] |  |  |  |  |  |  | 188.3 ppm | 22.9 ppm | 2480% | 0% | 56.3 ppm | 214%
CCOC(=O)C(=O)C(C)CC (stereo not shown) [Ethyl 3-methyl-2-oxopentanoate] | 0.6 | 0.6 | 0.6 | 417% | 786% | 210% |  |  |  |  |  | 
C[C@@H]1CC[C@H]2[C@H](C)C(=O)O[C@@H]2C1 [(+)-(3S,3AS,6R,7AR)-perhydro-3,6-dimethyl-benzo[B]furan-2-one] | 19.6 | 3.5 | 11.1 | 885% | 4929% | 1682% |  |  |  |  |  | 
CC(C=O)Cc1ccc(C(C)(C)C)cc1 (stereo not shown) [Lilial ®, 3-(4-Tert-butylphenyl)-2-methylpropanal] |  |  |  |  |  |  | 22.9 ppm | 7.3 ppm | 300% | −96% | 19.1 ppm | 0%
CCCCCC1C(=O)CCC1CC(=O)OC (stereo not shown) [Hedione ®, Methyl dihydrojasmonate] |  |  |  |  |  |  | 7.5 ppm | 22.9 ppm | 23% | −90% | 6.1 ppm | −68%
CCCCC(CC)CCC(C)O (stereo not shown) [5-ethyl-2-nonanol] | 19.6 | 6.2 | 6.3 | 885% | 452% | 214% |  |  |  |  |  | 
CC(C)=CCC[C@](C)(O)[C@@H]1CC=C(C)CC1 [Alpha-bisabolol] |  |  |  |  |  |  | 7.3 ppm | 172.7 ppm | 213% | 655% |  | 
CCCOC(=O)[C@H](C)OC(C)(C)CC [Sclareolate ®, Propyl (S)-2-(1,1-dimethylpropoxy)propanoate] | 1.1 | 1.1 | 0.6 | 465% | 223% | −2% |  |  |  |  |  | 
CCCCCCOC(=O)c1ccccc1O [Hexyl salicylate] |  |  |  |  |  |  | 7.3 ppm | 188.3 ppm | −68% | 162% | 7.3 ppm | −62%
CC=CC(=O)C1=C(C)CCCC1(C)C [Beta Dorinone ®, 1-(2,6,6-trimethyl-1-cyclohexen-1-yl)-2-buten-1-one] | 11.1 | 19.6 | 2.0 | 214% | 885% | 1558% |  |  |  |  |  | 
C=CCOC(=O)COC1CCCCC1 [Cyclogalbanate, Allyl (cyclohexyloxy)-acetate] | 2.0 | 6.3 | 3.5 | 216% | 453% | 212% |  |  |  |  |  | 
CCCc1ccc(OC)cc1 [Dihydroestragole] |  |  |  |  |  |  | 7.3 ppm | 71.9 ppm | −62% | 28% | 22.9 ppm | 214%
3-Methyl-(4/5)-cyclopentadecenone [Muscenone ™] | 11.1 | 11.1 | 11.1 | 454% | 77% | 214% |  |  |  |  |  | 
C=C(CC(C)CO)C1CC=C(C)C1(C)C (stereo not shown) [2-Methyl-4-(2,2,3-trimethyl-3-cyclopenten-1-yl)-4-penten-1-ol] | 3.5 | 3.5 | 2.0 | 212% | 212% | 852% |  |  |  |  |  | 
CCOC(=O)C(C)CC (stereo not shown) [Ethyl 2-methylbutanoate] | 19.6 | 11.1 | 11.1 | 214% | 213% | 77% |  |  |  |  |  | 
CCCCOC(C)=O [Butyl acetate] |  |  |  |  |  |  | 7.3 ppm | 225.5 ppm | 213% | 1079% |  | 
CC(CC=O)CCCC(C)(C)O (stereo not shown) [Hydroxycitronellal] |  |  |  |  |  |  | 71.9 ppm | 56.1 ppm | 20% | −22% | 22.9 ppm | 20%
Cedrenol |  |  |  |  |  |  | 2.3 ppm | 60 ppm | −68% | 162% | 2.3 ppm | −96%
CC(C)[C@H]1CC[C@@H](CO)CC1 [Mayol ®, cis-7-P-menthanol] | 0.6 | 3.5 | 3.5 | 800% | 212% | 212% |  |  |  |  |  | 
CCCCC[C@@H]1C(=O)CC[C@@H]1CC(=O)OC [Paradisone ®, (+)-Methyl (1R)-cis-3-oxo-2-pentyl-1-cyclopentaneacetate] |  |  |  |  |  |  | 22.9 ppm | 225.5 ppm | 0% | 214% | 6.1 ppm | −73%
